Patent US12285408B2, “Methods and compositions for the treatment of snake bite” (priority 2021, dated 2025)
“Also recorded” adds a separate entry of the source. Like-named read-outs stand apart in the source and are kept apart here.

Assays:
[1] = cited from earlier work
C. atrox venom = assay: Murine preincubation model of venom lethality, North American pit viper venom; assay type: in vivo, CD-1 mice; conditions: 2.5×LD50 C. atrox venom preincubated with 60 μg of each drug, i.v., 6 h, n=5
Description: (§1) Thereafter, the same murine animal model was used to explore the efficacy of the same snake venom metalloproteinase and phospholipase A2 inhibiting drugs as solo and combination treatments against North American pit viper venoms. The intravenous median lethal dose (venom LD50) for C. atrox, C. scutulatus, S. miliariius and A. contortrix venoms was previously determined (3.79 μg, 0.17 μg, 4.87 μg and 4.99 μg per mouse, respectively). […] As described above, all experimental doses were prepared to a volume of 200 μl in PBS and incubated at 37° C. for 30 min prior to their intravenous injection via the tail vein. Animals were monitored for 6 h, and euthanized via rising concentrations of CO2 upon observation of previously defined humane end points that are predicators of lethality (e.g., seizure, pulmonary distress, paralysis, hemorrhage). Deaths, time of death, and survivors were recorded; where death/time of death represents the implementation of euthanasia based on defined humane end points.
(§2) These snake species were selected for their taxonomic diversity and clinical importance in the USA, namely: 1) Crotalus atrox (Western diamondback), which is found across the southwest USA and into Mexico and is thought to be the most common cause of snakebite envenoming in USA, 2) Crotalus scutulatus (Mojave rattlesnake), which is also found across the southwest USA and into Mexico, 3) Sistrurus miliarius (pygmy rattlesnake), which is found in the South-East USA, and 4) Agkistrodon contortrix (Eastern copperhead), which is found in central and eastern USA. […] The drug treatments consisted of: DMPS, marimastat, or varespladib as solo drug treatments, or a DMPS and varespladib combination, or a marimastat and varespladib combination.

A. contortrix venom = assay: as above; assay type: in vivo, CD-1 mice; conditions: 2.5×LD50 A. contortrix venom preincubated with 60 μg of each drug, i.v., 6 h, n=5
Description: as §1, §2

C. scutulatus venom = assay: as above; assay type: in vivo, CD-1 mice; conditions: 2.5×LD50 C. scutulatus venom preincubated with 60 μg of each drug, i.v., 6 h, n=5
Description: as §1, §2

Echis ocellatus venom = assay: Murine preincubation (co-incubation) model of venom lethality, intravenous, with TAT ELISA; assay type: in vivo, CD-1 mice; conditions: 45 μg venom (2.5×LD50) preincubated 30 min at 37° C. with 60 μg of each drug, i.v., 6 h monitoring, n=5
Description: The intravenous median lethal dose (venom LD50) for E. ocellatus (Nigeria) of 17.85 μg per mouse was previously determined. Mice were challenged with 45 μg of E. ocellatus venom (2.5×the intravenous LD50 dose) in a refined version of the World Health Organization-recommended antivenom efficacy experiments. Groups of five male 18-22 g CD-1 mice (Charles River, UK) received experimental doses that consisted of either (a) venom only (2.5×LD50 dose), (b) venom and drug (60 μg) or (c) drug only. All experimental doses were prepared to a volume of 200 μl in PBS and incubated at 37° C. for 30 mins prior to their intravenous injection via the tail vein. Animals were monitored for 6 hours and euthanized upon observation of humane endpoints (seizure, pulmonary distress, paralysis, hemorrhage). Deaths, time of death, and survivors were recorded; where “deaths/time of death” represents the implementation of euthanasia based on the defined humane endpoints.
The same murine preincubation model was used to assess the efficacy of distinct toxin family inhibiting drugs in comparison with a drug combination. […] All experimental doses were prepared to a volume of 200 μl in PBS and incubated at 37° C. for 30 min prior to their intravenous injection via the tail vein. Animals were monitored for 6 h, and euthanized via rising concentrations of CO2 upon observation of previously defined humane end points that are predicators of lethality (e.g., seizure, pulmonary distress, paralysis, hemorrhage). Deaths, time of death, and survivors were recorded; where death/time of death represents the implementation of euthanasia based on defined humane end points.
Strong drug hits, those defined as inhibiting >80% of the venom activity in the previously described in vitro metalloproteinase assay (FIG. 1), were next progressed into murine preclinical efficacy studies, to assess their ability to prevent venom-induced lethality in vivo. We used an established in vivo model of envenoming to test the efficacy of the seven snake venom metalloproteinase toxin inhibitors identified. This model consisted of the preincubation of the test drug with venom, followed by intravenous injection of the mixture into groups of five male CD-1 mice (18-20 g) via the tail vein followed by 6 hour monitoring, and is based on principles laid out in the gold standard method of preclinical efficacy recommended by the World Health Organization.
We used an established in vivo model of envenoming^41,42 to test the efficacy of small molecule toxin inhibitors. […]

Row | Compound | half-life ([1]; delivered by iv infusion) | oral bioavailability (words) ([1]; human, in vivo, po) | protection against venom lethality (C. atrox venom) | protection against venom lethality (A. contortrix venom) | protection against venom lethality (C. scutulatus venom) | survival / protection against venom-induced lethality (Echis ocellatus venom) | oral bioavailability ([1]; human, in vivo, po) | oral bioavailability (words) ([1]; human, in vivo, po, listed as Marimastat) | half-life ([1]; oral) | time to peak plasma concentrations post-administration ([1]; oral)
1 | CCc1c(C(=O)C(N)=O)c2c(OCC(=O)O)cccc2n1Cc1ccccc1 [varespladib] | 5 h | good oral bioavailability | survived for longer periods of time than the venom only controls | survived for longer periods of time than the venom only controls | survive the duration of the experiment | failed to prevent lethality over the full experimental time course |  |  |  | 
2 | CNC(=O)[C@@H](NC(=O)[C@H](CC(C)C)[C@H](O)C(=O)NO)C(C)(C)C [marimastat] |  | excellent oral bioavailability | Neither drug provided protection | Neither drug provided protection | some limited protection | only one death; also recorded: remaining four survived | 70% | particularly good oral bioavailability | 8 to 10 h | 1.5 to 3 h
3 | O=S(=O)(O)CC(S)CS (stereo not shown) [DMPS, 2,3-dimercapto-1-propanesulfonic acid] |  |  | Neither drug provided protection | Neither drug provided protection | some limited protection | all animals surviving; also recorded: complete protection |  |  |  | 
